# Assay results taken from patent US20090246292A1, “ANTIMICROBIAL FORMULATIONS COMPRISING A QUINONE AND A COPPER SALT” (priority 2006, published 2009).
# Read-outs that look alike come from different tables or passages of the source.
# Assays:
# [1] = tested on: P. acnes NCTC 737; test: Disc diffusion assay (DDA), also supplemented;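 also: paper disc carrying compound placed on inoculated Wilkins-Chalgren Anaerobe agar pH 6.0, with lipid or NaCl supplement where listed, anaerobic 37 °C for 72 h, inhibition zone diameter read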
# [2] = tested on: S. aureus ATCC 29213; test: Synergy disc diffusion assay (SDDA), also supplemented;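 also: disc diffusion on Mueller-Hinton agar at pH 7.2, aerobic incubation at 37 °C lasting 19-20 h, two compounds assessed jointly for combined antimicrobial effect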
# [3] = tested on: P. acnes NCTC 737; test: Minimum inhibitory concentration (MIC) assay; assay type: cell-based, Propionibacterium acnes
# Text: (§1) (a) Minimum Inhibitory Concentration (MIC) Assay
# (§2) The culture media were as described above.
# (§3) The assays included both negative (culture medium with no micro-organisms) and positive (culture medium plus diluting solvent plus micro-organism) controls.
# [4] = tested on: P. acnes NCTC 737; test: Synergy disc diffusion assay (SDDA), also supplemented
# [5] = tested on: S. aureus ATCC 29213; test: Minimum inhibitory concentration (MIC) assay; assay type: cell-based, Staphylococcus aureus
# Text: as §1, §2, §3
# [6] = tested on: S. aureus ATCC 29213; test: Disc diffusion assay (DDA), also supplemented
# Procedure: The staphylococci were cultured and maintained on Mueller-Hinton Medium (agar and broth) at pH 7.2; cultures were incubated aerobically at 37° C. for 19-20 hours.
# (d) Disc Diffusion Assay (DDA)
# A sterile paper disc was impregnated with a sample of the test compound in a suitable solvent and 30 minutes allowed for the solvents to evaporate (where possible). The disc was then placed on an agar plate onto which the test micro-organism had been inoculated. The plate was then incubated under the conditions described above, following which it was examined visually for signs of bacterial growth. […] The diameter of this zone of “inhibition” was measured using a ProtoCOL™ automated zone sizer (Synbiosis, Cambridge, UK).
# (f) Supplemented Disc Diffusion Assays
# For assays using S. aureus ATCC 29213 the supplements used were sodium chloride (100 mM), lipid (Tween™ 80 at 1% v/v) and horse serum (5% v/v).
# [7] = tested on: S. aureus ATCC 29213; test: Minimum bactericidal concentration (MBC) assay; assay type: cell-based, Staphylococcus aureus
# Procedure: (§4) (b) Minimum Bactericidal Concentration (MBC) Assay
# (§5) Following incubation they were examined visually for bacterial growth.
# [8] = tested on: P. acnes NCTC 737; test: Minimum bactericidal concentration (MBC) assay; assay type: cell-based, Propionibacterium acnes
# Procedure: as §4, §5
# [9] = copper salt alone, 200 μg per disc (silicate 62 μg), 1% (v/v) Tween 80
# [10] = copper salt alone, 200 μg per disc (silicate 62 μg), salt and 1% (v/v) Tween 80
# [11] = copper salt alone, 200 μg per disc (silicate 62 μg), sodium chloride (100 mM)
# [12] = copper salt + TBHQ on one disc, 200 μg of each (silicate 62 μg), salt and serum supplements
# [13] = copper salt + TBHQ on one disc, 200 μg of each (silicate 62 μg), unsupplemented
# [14] = copper salt + TBHQ vs larger zone of either compound alone, unsupplemented
# [15] = copper salt + TBHQ, salt and serum supplements
# [16] = copper salt + TBHQ, unsupplemented
# [17] = copper salt alone, P. acnes NCTC 737
# [18] = copper salt + TBHQ on one disc, 200 μg of each (silicate 62 μg), salt and lipid (1% (v/v) Tween 80)
# [19] = copper salt + TBHQ, salt and lipid (1% (v/v) Tween 80)
# [20] = copper salt alone, S. aureus ATCC 29213
# [21] = copper salt alone, 200 μg per disc (silicate 62 μg), Tween 80 at 1% v/v
# [22] = copper salt alone, 200 μg per disc (silicate 62 μg), salt and horse serum (5% v/v)
substance,measurement,setting,value
Copper (II) salicylate,DDA,[1],47.77 mm
same,DDA + lipid,[1],41.75 mm
same,DDA + salt,[1],46.08 mm
same,DDA + salt & lipid,[1],50.69 mm
same,SDDA area increase,[2],61.52%
same,SDDA increase,[2],10.95 mm
same,SDDA with TBHQ,[2],51.37 mm
same,SS SDDA area increase,[2],9.37%
same,SS SDDA increase,[2],2.00 mm
same,SS SDDA with TBHQ,[2],45.68 mm
same,MIC,[3],7.8 µg/mL
same,MIC/MBC ratio,[3],0.25
same,SDDA area increase,[4],150.52%
same,SDDA increase,[4],27.84 mm
same,SDDA with TBHQ,[4],75.61 mm
same,SL SDDA area increase,[4],84.98%
same,SL SDDA increase,[4],18.25 mm
same,SL SDDA with TBHQ,[4],68.94 mm
same,MIC,[5],250 µg/mL
same,MIC/MBC ratio,[5],<1
same,DDA,[6],0 mm
same,DDA + lipid,[6],0 mm
same,DDA + salt,[6],0 mm
same,DDA + salt & serum,[6],0 mm
same,MBC,[7],>250 µg/mL
same,MBC,[8],31.25 µg/mL
Copper (II) silicate,DDA + salt & lipid,"[1]; Example 8, single compound, salt and 1% (v/v) triolein",42.56 (±2.18) mm
same,DDA + lipid,[1]; [9],33.40 mm
same,DDA + salt & lipid,[1]; [10],48.81 mm
same,DDA + salt,[1]; [11],41.44 mm
same,SS SDDA with TBHQ,[2]; [12],57.26 mm
same,SDDA with TBHQ,[2]; [13],71.79 mm
same,SDDA increase,[2]; [14],31.37 mm
same,SS SDDA area increase,[2]; [15],71.85%
same,SS SDDA increase,[2]; [15],13.58 mm
same,SDDA area increase,[2]; [16],215.45%
same,MIC,[3]; [17],4.84 µg/mL
same,MIC/MBC ratio,[3]; [17],0.125
same,SL SDDA with TBHQ,[4]; [18],54.96 mm
same,SDDA with TBHQ,[4]; [13],54.44 mm
same,SDDA increase,[4]; [14],8.76 mm
same,SL SDDA area increase,[4]; [19],26.80%
same,SL SDDA increase,[4]; [19],6.15 mm
same,SDDA area increase,[4]; [16],42.03%
same,MIC,[5]; [20],>77.5 µg/mL
same,DDA + salt & serum,"[6]; Example 9, single compound, salt and serum",0.00 (±0.00) mm
same,DDA + lipid,[6]; [21],0 mm
same,DDA + salt & serum,[6]; [22],0 mm
same,DDA + salt,[6]; [11],0 mm
same,MBC,[7]; [20],>77.5 µg/mL
same,MBC,[8]; [17],38.75 µg/mL
Copper (II)-D-gluconate,DDA,[1],45.37 mm
same,DDA + lipid,[1]; [9],27.36 mm
same,DDA + salt & lipid,[1]; [10],47.04 mm
same,DDA + salt,[1]; [11],37.93 mm
same,SS SDDA with TBHQ,[2]; [12],53.37 mm
same,SDDA with TBHQ,[2]; [13],68.32 mm
same,SDDA increase,[2]; [14],27.90 mm
same,SS SDDA area increase,[2]; [15],49.29%
same,SS SDDA increase,[2]; [15],9.69 mm
same,SDDA area increase,[2]; [16],185.69%
same,MIC,[3]; [17],62.5 µg/mL
same,MIC/MBC ratio,[3]; [17],0.5
same,SL SDDA with TBHQ,[4]; [18],53.19 mm
same,SDDA with TBHQ,[4]; [13],53.5 mm
same,SDDA increase,[4]; [14],8.13 mm
same,SL SDDA area increase,[4]; [19],27.88%
same,SL SDDA increase,[4]; [19],6.15 mm
same,SDDA area increase,[4]; [16],39.05%
same,MIC,[5]; [20],>250 µg/mL
same,DDA,[6],0 mm
same,DDA + lipid,[6]; [21],0 mm
same,DDA + salt & serum,[6]; [22],0 mm
same,DDA + salt,[6]; [11],0 mm
same,MBC,[7]; [20],>250 µg/mL
same,MBC,[8]; [17],125 µg/mL
